Target: T1, GABA A receptor α5β3γ2 (hα5) (Homo sapiens, UniProt P18507+P31644)
T1 construct: expressed in transfected cells; host or cells: HEK293 (transiently transfected), membrane preparation
Test: [3H]flumazenil competition binding assay, human GABA A α5β3γ2
Details: displacement of [3H]flumazenil (0.5 nM) from HEK293 cell membranes expressing α5β3γ2; means of two determinations; read-out: Ki[nM] hα5
Description: The affinity of compounds at GABA A receptor subtypes was measured by competition for [3H]flumazenil (85 Ci/mmol; Roche) binding to HEK293 cells expressing rat (stably transfected) or human (transiently transfected) receptors of composition α1β3γ2, α2β3γ2, α3β3γ2 and α5β3γ2.
Cell pellets were suspended in Krebs-tris buffer (4.8 mM KCl, 1.2 mM CaCl2, 1.2 mM MgCl2, 120 mM NaCl, 15 mM Tris; pH 7.5; binding assay buffer), homogenized by polytron for ca. 20 sec on ice and centrifuged for 60 min at 4° C. (50000 g; Sorvall, rotor: SM24=20000 rpm). The cell pellets were resuspended in Krebs-tris buffer and homogenized by polytron for ca. 15 sec on ice. Protein was measured (Bradford method, Bio-Rad) and aliquots of 1 mL were prepared and stored at −80° C.
Radioligand binding assays were carried out in a volume of […] (96-well plates) which contained […] of cell membranes, [3H]flumazenil at a concentration of 1 nM for α1, α2, α3 subunits and 0.5 nM for α5 subunits and the test compound in the range of […]. Nonspecific binding was defined by 10^−5 M diazepam and typically represented less than 5% of the total binding. Assays were incubated to equilibrium for 1 hour at 4° C. and harvested onto GF/C uni-filters (Packard) by filtration using a Packard harvester and washing with ice-cold wash buffer (50 mM Tris; pH 7.5). After drying, filter-retained radioactivity was detected by liquid scintillation counting. Ki values were calculated using Excel-Fit (Microsoft) and are the means of two determinations.

Compound	Ki
Cc1onc(-c2ccccc2)c1-c1cn(-c2cccc(C(F)(F)F)c2)cn1 [Example 10, 5-Methyl-3-phenyl-4-[1-(3-trifluoromethyl-phenyl)-1H-imidazol-4-yl]-isoxazole]	20.4 nM
COC(=O)c1cccc(-n2cnc(-c3c(-c4ccccc4)noc3C)c2)c1 [Example 11, 3-[4-(5-Methyl-3-phenyl-isoxazol-4-yl)-imidazol-1-yl]-benzoic acid methyl ester]	15.1 nM
CCc1onc(-c2ccc(F)cc2)c1-c1cn(-c2ccc(C(F)(F)F)cc2)cn1 [Example 133, 5-Ethyl-3-(4-fluoro-phenyl)-4-[1-(4-trifluoromethyl-phenyl)-1H-imidazol-4-yl]-isoxazole]	29.8 nM
Cc1ccc(-n2cnc(-c3c(-c4ccc(F)cc4)noc3C)c2)cc1[N+](=O)[O-] [Example 131, 3-(4-Fluoro-phenyl)-5-methyl-4-[1-(4-methyl-3-nitro-phenyl)-1H-imidazol-4-yl]-isoxazole]	21.5 nM
Cc1onc(-c2ccccc2)c1-c1cn(-c2ncccn2)c(COCc2ccccc2)n1 [Example 66, 2-[2-Benzyloxymethyl-4-(5-methyl-3-phenyl-isoxazol-4-yl)-imidazol-1-yl]-pyrimidine]	6.7 nM
O=[N+]([O-])c1ccc(-n2cnc(-c3c(-c4ccccc4)noc3C3CC3)c2)cc1 [Example 136, 5-Cyclopropyl-4-[1-(4-nitro-phenyl)-1H-imidazol-4-yl]-3-phenyl-isoxazole]	1.71 nM
Cc1onc(-c2ccccc2)c1-c1cn(-c2ccc([N+](=O)[O-])cc2)cn1 [Example 13, 5-Methyl-4-[1-(4-nitro-phenyl)-1H-imidazol-4-yl]-3-phenyl-isoxazole]	11.9 nM
Cc1onc(-c2ccccc2)c1-c1cn(-c2ccc(C(F)(F)F)cc2)cn1 [Example 14, 5-Methyl-3-phenyl-4-[1-(4-trifluoromethyl-phenyl)-1H-imidazol-4-yl]-isoxazole]	30.7 nM
Cc1onc(-c2ccccc2)c1-c1cn(-c2cccc(Br)c2)cn1 [Example 7, 4-[1-(3-Bromo-phenyl)-1H-imidazol-4-yl]-5-methyl-3-phenyl-isoxazole]	30.9 nM
Cc1onc(-c2ccccc2)c1-c1cn(-c2ccc([N+](=O)[O-])cc2)c(COCc2ccncc2)n1 [Example 165, 4-[4-(5-Methyl-3-phenyl-isoxazol-4-yl)-1-(4-nitro-phenyl)-1H-imidazol-2-ylmethoxymethyl]-pyridine]	18.2 nM
1-{4-(4-[5-Ethyl-3-(4-fluoro-phenyl)-isoxazol-4-yl]-imidazol-1-yl}-phenyl)-ethanone [Example 132]	4.7 nM
Cc1onc(-c2ccc(F)cc2)c1-c1cn(-c2cccc(C#N)c2)cn1 [Example 122, 3-{4-[3-(4-Fluoro-phenyl)-5-methyl-isoxazol-4-yl]-imidazol-1-yl}-benzonitrile]	25.6 nM
CCCc1ccc(-n2cnc(-c3c(-c4ccccc4)noc3C)c2)cc1 [Example 9, 5-Methyl-3-phenyl-4-[1-(4-propyl-phenyl)-1H-imidazol-4-yl]-isoxazole]	25.5 nM
CC(=O)c1ccc(-n2cnc(-c3c(-c4ccc(F)cc4)noc3C)c2)cc1 [Example 46, 1-(4-{4-[3-(4-Fluoro-phenyl)-5-methyl-isoxazol-4-yl]-imidazol-1-yl}-phenyl)-ethanone]	4.7 nM
Cc1onc(-c2ccc(F)cc2)c1-c1cn(-c2ccc(C(=O)NC3CCCC3)cc2)cn1 [Example 126, N-Cyclopentyl-4-{4-[3-(4-fluoro-phenyl)-5-methyl-isoxazol-4-yl]-imidazol-1-yl}-benzamide]	11.9 nM
Cc1onc(-c2ccccc2)c1-c1cn(-c2ccc([N+](=O)[O-])cc2)c(COCc2ccc(F)cc2)n1 [Example 154, 4-[2-(4-Fluoro-benzyloxymethyl)-1-(4-nitro-phenyl)-1H-imidazol-4-yl]-5-methyl-3-phenyl-isoxazole]	13.5 nM
Cc1onc(-c2ccccc2)c1-c1cn(-c2ccc([N+](=O)[O-])cc2)c(C=O)n1 [Example 149, 4-(5-Methyl-3-phenyl-isoxazol-4-yl)-1-(4-nitro-phenyl)-1H-imidazole-2-carbaldehyde]	29.9 nM
CC(=O)c1ccc(-n2cc(-c3c(-c4ccccc4)noc3C)nc2COCc2ccccc2)cc1 [Example 62, 1-{4-[2-Benzyloxymethyl-4-(5-methyl-3-phenyl-isoxazol-4-yl)-imidazol-1-yl]-phenyl}-ethanone]	5.4 nM
Cc1onc(-c2ccccc2)c1-c1cn(-c2cccc(C#N)c2)cn1 [Example 17, 3-[4-(5-Methyl-3-phenyl-isoxazol-4-yl)-imidazol-1-yl]-benzonitrile]	27 nM

Compound	Ki
CC(=O)c1ccc(-n2cnc(-c3c(-c4ccccc4)noc3C)c2)cc1 [Example 12, 1-{4-[4-(5-Methyl-3-phenyl-isoxazol-4-yl)-imidazol-1-yl]-phenyl}-ethanone]	5.5 nM
CC(=O)c1ccc(-n2cnc(-c3c(-c4ccc(F)cc4)noc3CO)c2)cc1 [Example 140, 1-(4-{4-[3-(4-Fluoro-phenyl)-5-hydroxymethyl-isoxazol-4-yl]-imidazol-1-yl}-phenyl)-ethanone]	9.8 nM
COc1ccc(-n2cnc(-c3c(-c4ccccc4)noc3C)c2)cc1 [Example 18, 4-[1-(4-Methoxy-phenyl)-1H-imidazol-4-yl]-5-methyl-3-phenyl-isoxazole]	21 nM
CSc1ccc(-n2cnc(-c3c(-c4ccccc4)noc3C)c2)cc1 [Example 21, 5-Methyl-4-[1-(4-methylsulfanyl-phenyl)-1H-imidazol-4-yl]-3-phenyl-isoxazole]	31.5 nM
Cc1onc(-c2ccccc2)c1-c1cn(-c2cc(F)cc(F)c2)cn1 [Example 24, 4-[1-(3,5-Difluoro-phenyl)-1H-imidazol-4-yl]-5-methyl-3-phenyl-isoxazole]	29 nM
Cc1onc(-c2ccc(F)cc2)c1-c1cn(-c2ncccn2)cn1 [Example 48, 2-{4-[3-(4-Fluoro-phenyl)-5-methyl-isoxazol-4-yl]-imidazol-1-yl}-pyrimidine]	17.6 nM
Cc1onc(-c2ccccc2)c1-c1cn(-c2ccc([N+](=O)[O-])cc2)c(COCc2cccnc2)n1 [Example 163, 3-[4-(5-Methyl-3-phenyl-isoxazol-4-yl)-1-(4-nitro-phenyl)-1H-imidazol-2-ylmethoxymethyl]-pyridine]	9.5 nM
Cc1onc(-c2ccccc2)c1-c1cn(-c2cccc(F)c2)cn1 [Example 4, 4-[1-(3-Fluoro-phenyl)-1H-imidazol-4-yl]-5-methyl-3-phenyl-isoxazole]	33.1 nM
Cc1onc(-c2ccc(F)cc2)c1-c1cn(-c2cccnc2)cn1 [Example 124, 3-{4-[3-(4-Fluoro-phenyl)-5-methyl-isoxazol-4-yl]-imidazol-1-yl}-pyridine]	27.2 nM
Cc1onc(-c2ccccc2)c1-c1cn(-c2ccc([N+](=O)[O-])cc2)c(COCc2ccccc2F)n1 [Example 160, 4-[2-(2-Fluoro-benzyloxymethyl)-1-(4-nitro-phenyl)-1H-imidazol-4-yl]-5-methyl-3-phenyl-isoxazole]	12.7 nM
Cc1onc(-c2ccccc2F)c1-c1cn(-c2ncccn2)cn1 [Example 39, 2-{4-[3-(2-Fluoro-phenyl)-5-methyl-isoxazol-4-yl]-imidazol-1-yl}-pyrimidine]	18.3 nM
Cc1onc(-c2ccc(F)cc2)c1-c1cn(-c2ccc(C#N)cc2)cn1 [Example 116, 4-{4-[3-(4-Fluoro-phenyl)-5-methyl-isoxazol-4-yl]-imidazol-1-yl}-benzonitrile]	13.2 nM
Cc1onc(-c2ccccc2)c1-c1cn(-c2ccc(C(=O)NCC3CC3)cc2)cn1 [Example 71, N-Cyclopropylmethyl-4-[4-(5-methyl-3-phenyl-isoxazol-4-yl)-imidazol-1-yl]-benzamide]	16.7 nM
Cc1onc(-c2ccccc2)c1-c1cn(-c2ccc(C#N)cc2)c(COCc2ccccc2)n1 [Example 65, 4-[2-Benzyloxymethyl-4-(5-methyl-3-phenyl-isoxazol-4-yl)-imidazol-1-yl]-benzonitrile]	19.1 nM
Cc1onc(-c2ccc(F)cc2)c1-c1cn(-c2ccc(F)cc2)cn1 [Example 114, 3-(4-Fluoro-phenyl)-4-[1-(4-fluoro-phenyl)-1H-imidazol-4-yl]-5-methyl-isoxazole]	31 nM
Cc1onc(-c2cccc(F)c2)c1-c1cn(-c2ccc(C(=O)NCCO)cc2)cn1 [Example 101, 4-{4-[3-(3-Fluoro-phenyl)-5-methyl-isoxazol-4-yl]-imidazol-1-yl}-N-(2-hydroxy-ethyl)-benzamide]	27 nM
Cc1onc(-c2ccccc2)c1-c1cn(-c2ccc([N+](=O)[O-])cc2)c(COCc2ccccc2)n1 [Example 63, 4-[2-Benzyloxymethyl-1-(4-nitro-phenyl)-1H-imidazol-4-yl]-5-methyl-3-phenyl-isoxazole]	14.4 nM
CC(=O)c1ccc(-n2cnc(-c3c(-c4ccccc4F)noc3C)c2)cc1 [Example 36, 1-(4-{4-[3-(2-Fluoro-phenyl)-5-methyl-isoxazol-4-yl]-imidazol-1-yl}-phenyl)-ethanone]	7.8 nM

— patent US7414061B2, “Aryl-isoxazol-4-yl-imidazole derivatives” (Hoffmann-La Roche Inc., priority 2005, dated 2008)
